Series [1] concerns fully kindled (stage 5) seizures, amygdala kindled rat. Description: Amygdala kindled rat model. Type of series: in vivo. As to conditions: <60 mg/kg i.p. An excerpt: Amygdala kindling model is an animal model for complex partial seizures, which is the most common type of epilepsy in adults and is often drug resistant.
Series [2] deals with maximal electroshock seizure. Put plainly: Maximal Electroshock Seizure (MES) rat model. As to conditions: po, 0.5 hour. Type of series: in vivo. The protocol: Male, Sprague-Dawley rats and CD-1 mice were used for all studies. All animals were allowed ad-lib access to food and water except during experiment. Animals were housed within an animal vivarium maintained under a 12 h light:dark cycle (lights on: 07:00 h), and all experiments were conducted in the animals light phase. For all experiments, animals were habituated to the vivarium for a minimum of 72 h before experimentation. The experimental procedures used in the present investigation were conducted under the Association for Assessment and Accreditation of Laboratory Animal Care (AAALAC) and the Canadian Council on Animal Care (CCAC) guidelines. All compounds were sonicated in 5% Tween 80® in saline or methylcellulose 0.5% (wgt/vol), using MC and sterile water and injected in a dose volume of 5 ml/kg or 10 ml/kg (rat), and 10 ml/kg (mouse). Drugs were administered by either the oral, intraperitoneal or intravenous route. Male Sprague-Dawley rats of body weight 80-100 g were used for these studies. Each experiment was conducted over 3 consecutive days. On day 1 and 2, each rat received a single electrical stimulus (150 mA, 0.2 s duration, 60 Hz) via corneal electrodes moistened with saline (Shock stimulator type 221: Harvard apparatus). […] Typically this reflected approximately 70-90% of the initial group. […] On the test day following a defined drug pretreatment period, rats received a maximal electroshock (150 mA, 0.2 s duration, 60 Hz) via corneal electrodes. Protection was defined as absence of a full tonic seizure within 10 s of stimulus delivery. Twenty minutes before the MES procedure, the animals were tested on a fixed speed rotorod (best score from 3 trials at 8 r.p.m, trial duration=60 s) to give an early assessment of drug effect on gross motor function.

Series [3] concerns gross motor function. Put plainly: Fixed speed rotorod, rat (gross motor function). As to conditions: Sprague-Dawley, in vivo, po. The protocol: On the test day following a defined drug pretreatment period, rats received a maximal electroshock (150 mA, 0.2 s duration, 60 Hz) via corneal electrodes. Protection was defined as absence of a full tonic seizure within 10 s of stimulus delivery. Twenty minutes before the MES procedure, the animals were tested on a fixed speed rotorod (best score from 3 trials at 8 r.p.m, trial duration=60 s) to give an early assessment of drug effect on gross motor function.

The next series relates to 6 Hz psychomotor seizure. Description: Mouse 6 Hz model. As to conditions: mice, ip, 0.5 hour, 32 mA. Type of series: in vivo. The protocol:
Male, Sprague-Dawley rats and CD-1 mice were used for all studies. All animals were allowed ad-lib access to food and water except during experiment. Animals were housed within an animal vivarium maintained under a 12 h light:dark cycle (lights on: 07:00 h), and all experiments were conducted in the animals light phase. For all experiments, animals were habituated to the vivarium for a minimum of 72 h before experimentation. The experimental procedures used in the present investigation were conducted under the Association for Assessment and Accreditation of Laboratory Animal Care (AAALAC) and the Canadian Council on Animal Care (CCAC) guidelines. All compounds were sonicated in 5% Tween 80® in saline or methylcellulose 0.5% (wgt/vol), using MC and sterile water and injected in a dose volume of 5 ml/kg or 10 ml/kg (rat), and 10 ml/kg (mouse). Drugs were administered by either the oral, intraperitoneal or intravenous route. […] Preliminary experiments established that these stimulus parameters elicited a psychomotor seizure, defined as the expression of at least one of the following behaviors: stun/immobility, forelimb clonus, straub tail, vibrissae tremor, lateral head movement in >95% of control animals. Protection was defined as complete absence of all the above behaviors within 20 s of stimulus delivery. The effective dose of compound necessary to protect against psychomotor seizures to 50% of controls (i.e. ED50) was determined by curve fitting program (Prism v.4.02).

Series [4] deals with gross motor function. Description: Rotorod, mouse (Table 8). As to conditions: in vivo, po, Table 8, mouse.

For the compound `NC(=O)C(F)(F)Oc1cc(Cl)cc(C(F)(F)F)c1` [Compound I(E), 2-[3-chloro-5-(trifluoromethyl)-phenoxy]-2,2-difluoro-acetamide], the “suppression of fully kindled (stage 5) seizures compared to vehicle controls” value in series [1] was “dose related suppression”.

For `CN(CC(N)=O)c1cc(C(F)(F)F)cc(C(F)(F)F)c1` [I(A), 2-[(3,5-Bis-trifluoromethyl-phenyl)-methyl-amino]-acetamide], the ED50 came out at 48 ± 1.1 mg/kg in series [2] and 62.5 ± 1 mg/kg with 6 Hz psychomotor seizure. Also, the 50% effective dose (ED50) at 0.5 hour in the series on gross motor function [3] is more than 500 mg/kg; with gross motor function [4], more than 160 mg/kg.

The values are drawn from patent publication US10604476B2, “Fluorinated amide derivatives and their uses as therapeutic agents” (Trillium Therapeutics Inc., priority 2015, dated 2020).
